Values after ≈ are worked out from the molar mass of the structure shown. Read-outs that look alike come from different tables or passages of the source.
What was measured:
[1] = tested on: vancomycin-intermediate Staphylococcus aureus (VISA); experiment: Broth microdilution MIC (Example 12)
[2] = Particle size distribution of BisEDT samples vs processing conditions (Table 111); type: physicochemical; settings: BisEDT sample
Protocol: It was observed that careful control of the reaction temperature and the rate of 1,2 ethanedithiol addition had pronounced impact on the BisEDT particle size distribution.
To a 1-L jacketed reactor was charged USP water (480 mL, 48 vol), followed by 70% HNO3 (34 mL, 3.4 vol). A solution of bismuth subnitrate (10 g, 6.84 mmols) in water (43 mL, 4.3 vol) and 70% HNO3 (14 mL, 1.4 vol) was added at 20° C. The reaction mixture was cooled to 15° C. for addition of 95% Ethanol. The 95% ethanol (180 mL, 18 vol) was then added slowly. (Ethanol addition is exothermic, temperature reached 22° C.). The temperature was then adjusted back to 20° C. […] The reaction was stirred at 20° C. overnight. The reaction mixture was filtered through polypropylene cloth and washed with 95% ethanol (45 mL, 4.5 vol). The wet cake was charged back to the reactor and slurried in 95% ethanol (380 mL, 38 vol) for two hours at 20° C. The suspension was then filtered (same cloth) and washed with 95% ethanol (30 mL, 3 vol). The wet cake was again slurried in 95% EtOH (170 mL, 17 vol) at 20° C., filtered (same cloth), and washed with 95% ethanol (30 mL, 3 vol). The wet cake was then slurried in acetone (170 mL, 17 vol) at 20° C. overnight, followed by filtration (same cloth) and acetone wash (20 mL, 2 vol). The acetone (170 ml, 17 vol) treatment was repeated on the solids and stirred for 2 hours. The suspension was filtered (same cloth) and washed with acetone (30 mL, 3 vol) and died at 45° C. and dried at 45° C. (18 hours) to provide canary yellow solid (10.81 g 91.0%).
Representative synthesis of BisEDT at 15° C. with 1 hour addition of thiol via syringe pump, and polypropylene cloth for filtration: The synthesis BisEDT was performed on 10-g scale, temperature profile was studied with data logger. Ethane dithiol was added at 15° C. over 1 hour via syringe pump and the filtration was performed using PP filter cloth. To a 1-L jacketed reactor was charged USP water (480 mL, 48 vol) and cooled to 15° C., followed by 70% HNO3 (34 mL, 3.4 vol). A solution of bismuth subnitrate (10 g, […]) in water (43 mL, 4.3 vol) and 70% HNO3 (14 mL, 1.4 vol) was added at the same temperature. The 95% ethanol (180 mL, 18 vol) was then added slowly. […] It was then allowed to cool to 15° C. This was followed by dropwise addition of 1,2 ethanedithiol (4.3 mL, […] in 95% ethanol in 94 mL, 9.4 vol) over an hour with the batch temperature at 15° C. The reaction was allowed to stir at 15° C. overnight. The reaction mixture was filtered through polypropylene cloth and washed with 95% ethanol (45 mL, 4.5 vol). The wet cake was charged back to the reactor and slurried in 95% ethanol (380 mL, 38 vol) for two hours at 20° C. The suspension was then filtered (same cloth) and washed with 95% ethanol (30 mL, 3 vol). The wet cake was again slurried in 95% EtOH (170 mL, 17 vol) at 20° C., filtered (same cloth), and washed with 95% ethanol (30 mL, 3 vol). The wet cake was then slurried in acetone (170 mL, 17 vol) at 20° C. overnight, followed by filtration (same cloth) and acetone wash (20 mL, 2 vol). The acetone (170 ml, 17 vol) treatment was repeated on the solids and stirred for 2 hours. The suspension was filtered (same cloth) and washed with acetone (30 mL, 3 vol) and died at 45° C. and dried at 45° C. (18 hours) to provide canary yellow solid (10.43 g 87.8%).

Row | SMILES | D (10) [2] [μm] | D (50) [2] [μm] | D (90) [2] [μm] | D [4,3] [2] [μm] | further results
1 | CCC[C@@H]1C[C@@H](C(=O)N[C@@H]([C@H]2O[C@H](SC)[C@H](O)[C@@H](O)[C@H]2O)[C@H](C)Cl)N(C)C1 [CLI] |  |  |  |  | MIC ([1]; S. aureus NRS 1 (hVISA)): >8 µg/mL; MIC ([1]; S. aureus NRS 2): >8 µg/mL; MIC ([1]; S. aureus NRS 3): >8 µg/mL; MIC ([1]; S. aureus NRS 4): >8 µg/mL; MIC ([1]; S. aureus NRS 13): 0.06 µg/mL (≈ 0.141 µM); MIC ([1]; S. aureus NRS 18): >8 µg/mL; MIC ([1]; S. aureus NRS 22): >8 µg/mL; MIC ([1]; S. aureus NRS 24 (hVISA)): >8 µg/mL; MIC ([1]; S. aureus NRS 27): >8 µg/mL
2 | CCCCCCCCCC(=O)NC(Cc1c[nH]c2ccccc12)C(=O)NC(CC(N)=O)C(=O)NC(CC(=O)O)C(=O)NC1C(=O)NCC(=O)NC(CCCN)C(=O)NC(CC(=O)O)C(=O)NC(C)C(=O)NC(CC(=O)O)C(=O)NCC(=O)NC(CO)C(=O)NC(C(C)CC(=O)O)C(=O)NC(CC(=O)c2ccccc2N)C(=O)OC1C (stereo not shown) [DAP] |  |  |  |  | MIC ([1]; S. aureus NRS 1 (hVISA)): 1 µg/mL (≈ 0.617 µM); MIC ([1]; S. aureus NRS 2): 0.25 µg/mL (≈ 0.154 µM); MIC ([1]; S. aureus NRS 3): 1 µg/mL (≈ 0.617 µM); MIC ([1]; S. aureus NRS 4): 0.5 µg/mL (≈ 0.309 µM); MIC ([1]; S. aureus NRS 13): 2 µg/mL (≈ 1.23 µM); MIC ([1]; S. aureus NRS 18): 0.5 µg/mL (≈ 0.309 µM); MIC ([1]; S. aureus NRS 22): 2 µg/mL (≈ 1.23 µM); MIC ([1]; S. aureus NRS 24 (hVISA)): 0.5 µg/mL (≈ 0.309 µM); MIC ([1]; S. aureus NRS 27): 0.25 µg/mL (≈ 0.154 µM)
3 | CC(=O)NC[C@H]1CN(c2ccc(N3CCOCC3)c(F)c2)C(=O)O1 [LZD] |  |  |  |  | MIC ([1]; S. aureus NRS 1 (hVISA)): 1 µg/mL (≈ 2.96 µM); MIC ([1]; S. aureus NRS 2): 4 µg/mL (≈ 11.9 µM); MIC ([1]; S. aureus NRS 3): 1 µg/mL (≈ 2.96 µM); MIC ([1]; S. aureus NRS 4): 1 µg/mL (≈ 2.96 µM); MIC ([1]; S. aureus NRS 13): 2 µg/mL (≈ 5.93 µM); MIC ([1]; S. aureus NRS 18): 1 µg/mL (≈ 2.96 µM); MIC ([1]; S. aureus NRS 22): 1 µg/mL (≈ 2.96 µM); MIC ([1]; S. aureus NRS 24 (hVISA)): 2 µg/mL (≈ 5.93 µM); MIC ([1]; S. aureus NRS 27): 2 µg/mL (≈ 5.93 µM)
4 | C1C[S][Bi]([S]CC[S][Bi]2[S]CC[S]2)[S]1.SCCS [Sample 1] | 0.80 | 2.4 | 5.9 | 2.9 | 
5 | C1C[S][Bi]([S]CC[S][Bi]2[S]CC[S]2)[S]1 [Sample 2] | 0.58 | 1.7 | 3.9 | 2.0 | 
6 | C1C[S][Bi]([S]CC[S][Bi]2[S]CC[S]2)[S]1.SCCS [Sample 3] | 0.59 | 1.9 | 4.5 | 2.3 | 
7 | C1C[S][Bi]([S]CC[S][Bi]2[S]CC[S]2)[S]1 [Sample 4] | 0.44 | 1.48 | 3.1 | 1.7 | 
8 | C1C[S][Bi]([S]CC[S][Bi]2[S]CC[S]2)[S]1 [Sample 5] | 0.33 | 0.72 | 1.6 | 0.86 | 
9 | C1C[S][Bi]([S]CC[S][Bi]2[S]CC[S]2)[S]1 [Sample 6] | 0.34 | 0.87 | 1.8 | 0.98 | 
10 | C1C[S][Bi]([S]CC[S][Bi]2[S]CC[S]2)[S]1 [Sample 7] | 0.39 | 1.3 | 1.6 | 1.4 | 
11 | C1C[S][Bi]([S]CC[S][Bi]2[S]CC[S]2)[S]1 [Sample 8] | 0.36 | 1.0 | 1.8 | 1.0 | 
12 | C1C[S][Bi]([S]CC[S][Bi]2[S]CC[S]2)[S]1 [Sample 9] | 0.67 | 1.0 | 1.9 | 1.1 | 
13 | C1C[S][Bi]([S]CC[S][Bi]2[S]CC[S]2)[S]1 [Sample 10] | 0.36 | 0.88 | 1.7 | 0.97 | 
14 | C1C[S][Bi]([S]CC[S][Bi]2[S]CC[S]2)[S]1 [Sample 11] | 0.38 | 1.2 | 2.4 | 1.4 | 
15 | C1C[S][Bi]([S]CC[S][Bi]2[S]CC[S]2)[S]1 [Sample 12] | 0.37 | 1.2 | 2.4 | 1.3 | 
16 | C1C[S][Bi]([S]CC[S][Bi]2[S]CC[S]2)[S]1 [Sample 13] | 0.36 | 0.98 | 2.1 | 1.2 | 
17 | C1C[S][Bi]([S]CC[S][Bi]2[S]CC[S]2)[S]1 [Sample 14] | 0.36 | 1.0 | 2.1 | 1.2 | 
18 | C1C[S][Bi]([S]CC[S][Bi]2[S]CC[S]2)[S]1 [Sample 15] | 0.32 | 0.72 | 1.6 | 0.86 | 
19 | CN[C@H](CC(C)C)C(=O)N[C@H]1C(=O)N[C@@H](CC(N)=O)C(=O)N[C@H]2C(=O)N[C@H]3C(=O)N[C@H](C(=O)N[C@H](C(=O)O)c4cc(O)cc(O)c4-c4cc3ccc4O)[C@H](O)c3ccc(c(Cl)c3)Oc3cc2cc(c3O[C@@H]2O[C@H](CO)[C@@H](O)[C@H](O)[C@H]2O[C@H]2C[C@](C)(N)[C@H](O)[C@H](C)O2)Oc2ccc(cc2Cl)[C@H]1O [VAN] |  |  |  |  | MIC ([1]; S. aureus NRS 1 (hVISA)): 4 µg/mL (≈ 2.76 µM); MIC ([1]; S. aureus NRS 2): 0.5 µg/mL (≈ 0.345 µM); MIC ([1]; S. aureus NRS 3): 8 µg/mL (≈ 5.52 µM); MIC ([1]; S. aureus NRS 4): 4 µg/mL (≈ 2.76 µM); MIC ([1]; S. aureus NRS 13): 2 µg/mL (≈ 1.38 µM); MIC ([1]; S. aureus NRS 18): 4 µg/mL (≈ 2.76 µM); MIC ([1]; S. aureus NRS 22): 4 µg/mL (≈ 2.76 µM); MIC ([1]; S. aureus NRS 24 (hVISA)): 2 µg/mL (≈ 1.38 µM); MIC ([1]; S. aureus NRS 27): 2 µg/mL (≈ 1.38 µM)
20 | CC(=O)NC[C@H]1CN(c2ccc(N3CCOCC3)c(F)c2)C(=O)O1 [linezolid, reference compound] |  |  |  |  | MIC ([1]; Staphylococcus aureus, VISA, read-out: MIC values): ≤ 4 µg/mL
